In patent publication US20230263822A1, “MODULATION OF FACTOR 11 EXPRESSION” (Ionis Pharmaceuticals, Inc., priority 2008, published 2023):

Legend:
human Factor 11 mRNA [1] = test: Antisense inhibition of human Factor 11 in HepG2 cells, electroporation, 8,000 nM (Example 30); format: cell-based; conditions: electroporation, 8,000 nM antisense oligonucleotide
Outline: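 HepG2 cells electroporated with 8,000 nM 5-10-5, 5-8-5 or 6-8-6 MOE gapmers (phosphorothioate, 5-methylcytidine), ~24 h. Factor 11 mRNA quantified by qRT-PCR, normalised to RIBOGREEN total RNA. Reported as percent inhibition versus untreated cells.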

human Factor 11 mRNA [2] = test: Dose-dependent inhibition of human Factor 11 in HepG2 cells, electroporation 0.7-20 uM (Example 4); format: cell-based
Outline: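 HepG2 cells electroporated with antisense gapmers at 0.7, 2.2, 6.7 and 20 μM, treated ~16 h. Factor 11 mRNA quantified by qRT-PCR (primer probe set RTS 2966), normalised to RIBOGREEN total RNA; expressed as percent inhibition versus untreated control cells.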

human Factor 11 mRNA [3] = test: Antisense inhibition of human Factor 11 in HepG2 cells by microwalk gapmers, lipofectin, 75 nM (Example 3); format: cell-based; conditions: HepG2 cells, lipofectin, gapmers targeted to nucleobases 1275 to 1318 of SEQ ID NO: 1
Outline: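 HepG2 cells (10,000/well) were transfected via lipofectin with 75 nM 20-mer MOE gapmers (phosphorothioate, 5-methyl-C) for about 24 h. Factor 11 mRNA was measured by qRT-PCR, normalized to RIBOGREEN total RNA, and given as percent inhibition versus untreated cells.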

[4] = Tolerability in Sprague-Dawley rats: kidney function, urine protein/creatinine (Example 35); conditions: Sprague Dawley rats
Procedure: A control group of four Sprague Dawley rats was injected subcutaneously with PBS twice per week for 6 weeks. Body weight measurements were taken before and throughout the treatment period. Urine samples were taken before the start of treatment. Three days after the last dose, urine samples were taken and the rats were sacrificed. Organ weights were measured and blood was collected for further analysis.
To evaluate the effect of kidney function, plasma concentrations of blood urea nitrogen (BUN) and creatinine were measured using an automated clinical chemistry analyzer (Hitachi Olympus AU400e, Melville, N.Y.).

## 416850 (antisense TGCACAGTTTCTGGCAGGCC; 5-10-5 gapmer, further chemistry not given here) [compound 416850]
Human Factor 11 mRNA [1]
  Percent inhibition of human Factor 11 mRNA levels: 91%
Human Factor 11 mRNA [2]
  IC50: 3.4 µM
Human Factor 11 mRNA [2]; 0.7 μM, relative to untreated control cells
  percent inhibition of Factor 11 at 0.7 μM: 14%
Human Factor 11 mRNA [2]; 2.2 μM, relative to untreated control cells
  percent inhibition of Factor 11 at 2.2 μM: 25%
Human Factor 11 mRNA [2]; 6.7 μM, relative to untreated control cells
  percent inhibition of Factor 11 at 6.7 μM: 81%
Human Factor 11 mRNA [2]; 20 μM, relative to untreated control cells
  percent inhibition of Factor 11 at 20 μM: 91%
Human Factor 11 mRNA [3]
  % inhibition: 93%
[4]; After treatment, 50 mg/kg s.c. twice per week for 6 weeks
  Urine protein/creatinine ratio: 4.0
[4]; Before antisense oligonucleotide treatment
  Urine protein/creatinine ratio: 1.0
